Assay results published in patent US8822462B2, “Subunit selective NMDA receptor potentiators for the treatment of neurological conditions” (Emory University, priority 2009, dated 2014).
Where two headings read alike, the source gives them in different places.

Tests used:
[1] = target: T1, NR1/NR2B (Homo sapiens, UniProt Q05586+Q13224); test: Two electrode voltage clamp, Xenopus laevis oocytes expressing NR1/NR2B; assay type: cell-based; settings: for IC50: fitted to composite concentration-effect data, Max 0 = inhibition, read-out: 2B IC50
T1 construct: expressed in transfected cells; host or cells: Xenopus laevis oocytes
T1 sequence (Q13224 27-1484, species assumed, other chains not shown): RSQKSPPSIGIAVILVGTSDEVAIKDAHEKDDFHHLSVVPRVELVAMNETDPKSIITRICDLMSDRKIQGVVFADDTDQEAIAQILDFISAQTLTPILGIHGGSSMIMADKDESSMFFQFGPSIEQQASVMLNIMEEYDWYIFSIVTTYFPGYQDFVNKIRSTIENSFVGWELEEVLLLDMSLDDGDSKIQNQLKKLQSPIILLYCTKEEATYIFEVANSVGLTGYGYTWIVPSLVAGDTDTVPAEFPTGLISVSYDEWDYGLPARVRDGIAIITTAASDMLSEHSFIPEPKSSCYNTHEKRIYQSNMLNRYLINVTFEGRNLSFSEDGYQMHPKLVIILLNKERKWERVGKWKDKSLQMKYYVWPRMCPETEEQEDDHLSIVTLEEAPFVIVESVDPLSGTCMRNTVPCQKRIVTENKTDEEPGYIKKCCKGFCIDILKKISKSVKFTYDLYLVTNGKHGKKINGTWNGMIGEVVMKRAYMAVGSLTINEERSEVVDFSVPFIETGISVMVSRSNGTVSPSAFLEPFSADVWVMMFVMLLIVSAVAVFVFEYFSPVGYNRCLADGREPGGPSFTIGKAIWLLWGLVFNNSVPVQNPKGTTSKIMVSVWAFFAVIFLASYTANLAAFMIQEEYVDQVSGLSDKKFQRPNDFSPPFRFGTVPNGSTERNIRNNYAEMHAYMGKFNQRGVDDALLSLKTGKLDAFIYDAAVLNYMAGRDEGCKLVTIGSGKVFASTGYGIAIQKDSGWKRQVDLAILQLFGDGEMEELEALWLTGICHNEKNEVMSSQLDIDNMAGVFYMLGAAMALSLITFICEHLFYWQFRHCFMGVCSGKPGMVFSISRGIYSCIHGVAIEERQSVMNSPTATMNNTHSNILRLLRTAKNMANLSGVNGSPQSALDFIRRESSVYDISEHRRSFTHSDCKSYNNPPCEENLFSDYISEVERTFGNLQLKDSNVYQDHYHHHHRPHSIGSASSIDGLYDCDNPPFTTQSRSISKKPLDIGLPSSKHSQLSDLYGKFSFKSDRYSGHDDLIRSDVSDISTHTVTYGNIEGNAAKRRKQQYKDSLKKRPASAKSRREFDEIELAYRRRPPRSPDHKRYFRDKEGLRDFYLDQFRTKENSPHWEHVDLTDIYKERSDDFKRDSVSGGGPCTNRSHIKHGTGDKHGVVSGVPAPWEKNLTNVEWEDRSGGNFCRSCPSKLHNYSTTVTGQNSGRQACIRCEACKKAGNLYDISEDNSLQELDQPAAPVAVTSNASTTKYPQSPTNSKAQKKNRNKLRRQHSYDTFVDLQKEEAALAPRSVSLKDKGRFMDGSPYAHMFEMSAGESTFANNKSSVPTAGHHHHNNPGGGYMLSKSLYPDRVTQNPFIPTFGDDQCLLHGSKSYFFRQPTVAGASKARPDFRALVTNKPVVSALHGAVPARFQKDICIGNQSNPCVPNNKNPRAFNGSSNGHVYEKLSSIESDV
Method: (§1) In the table above, potency is expressed as fitted EC50 value to average composite concentration-effect data constructed from current responses recorded under two electrode voltage clamp from Xenopus laevis oocytes expressing either NR1/NR2A, B, C, or D, GluR1, or GluR6. No effect means less than 20% change in response amplitude at 30 μM of drug.

[2] = target: T2, NR1/NR2A (Homo sapiens, UniProt Q12879); test: Two electrode voltage clamp, Xenopus laevis oocytes expressing NR1/NR2A; assay type: cell-based; settings: at 100 μM; read-out: 2A percent effect at the maximum tested concentration
T2 construct: expressed in transfected cells; host or cells: Xenopus laevis oocytes
T2 sequence (Q12879 23-1464, species assumed, other chains not shown): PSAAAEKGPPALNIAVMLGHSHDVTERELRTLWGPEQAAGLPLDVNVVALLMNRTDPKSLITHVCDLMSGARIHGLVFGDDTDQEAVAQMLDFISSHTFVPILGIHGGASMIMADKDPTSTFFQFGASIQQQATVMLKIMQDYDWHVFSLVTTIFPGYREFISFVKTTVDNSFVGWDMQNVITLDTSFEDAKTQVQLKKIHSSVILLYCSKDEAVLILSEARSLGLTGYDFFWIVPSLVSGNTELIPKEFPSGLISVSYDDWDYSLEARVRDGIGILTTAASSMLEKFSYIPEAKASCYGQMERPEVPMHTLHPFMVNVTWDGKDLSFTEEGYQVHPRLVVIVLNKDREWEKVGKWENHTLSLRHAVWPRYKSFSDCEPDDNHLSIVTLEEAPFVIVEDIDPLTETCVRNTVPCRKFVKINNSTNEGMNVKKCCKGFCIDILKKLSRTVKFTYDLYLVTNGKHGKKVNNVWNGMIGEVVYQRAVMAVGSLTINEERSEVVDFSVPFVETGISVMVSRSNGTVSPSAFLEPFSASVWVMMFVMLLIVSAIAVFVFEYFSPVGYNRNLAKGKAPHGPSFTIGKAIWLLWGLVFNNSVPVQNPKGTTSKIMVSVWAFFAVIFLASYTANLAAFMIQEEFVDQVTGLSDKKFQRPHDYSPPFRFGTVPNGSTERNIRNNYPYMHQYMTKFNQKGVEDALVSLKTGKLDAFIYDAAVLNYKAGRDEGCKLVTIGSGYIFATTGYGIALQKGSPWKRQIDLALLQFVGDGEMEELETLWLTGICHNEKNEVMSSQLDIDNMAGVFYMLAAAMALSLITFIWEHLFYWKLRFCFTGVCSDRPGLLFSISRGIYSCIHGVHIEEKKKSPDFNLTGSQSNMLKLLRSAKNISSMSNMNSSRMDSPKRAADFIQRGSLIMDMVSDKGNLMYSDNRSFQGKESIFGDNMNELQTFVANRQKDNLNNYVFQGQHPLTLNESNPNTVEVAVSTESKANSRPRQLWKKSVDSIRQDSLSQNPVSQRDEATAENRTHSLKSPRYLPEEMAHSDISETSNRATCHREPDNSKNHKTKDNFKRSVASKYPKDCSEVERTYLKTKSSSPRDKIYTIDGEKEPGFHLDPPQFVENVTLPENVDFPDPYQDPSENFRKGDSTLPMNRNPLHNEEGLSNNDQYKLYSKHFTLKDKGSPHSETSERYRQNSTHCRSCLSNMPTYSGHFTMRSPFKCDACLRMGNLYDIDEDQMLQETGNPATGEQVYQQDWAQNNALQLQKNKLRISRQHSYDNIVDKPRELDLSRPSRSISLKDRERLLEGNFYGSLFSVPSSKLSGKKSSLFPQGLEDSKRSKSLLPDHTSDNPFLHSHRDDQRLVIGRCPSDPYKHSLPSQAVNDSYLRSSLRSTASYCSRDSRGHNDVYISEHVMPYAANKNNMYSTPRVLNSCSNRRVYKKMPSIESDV
Method: as §1

[3] = target: T3, NR1/NR2C (Homo sapiens, UniProt Q05586+Q14957); test: Two electrode voltage clamp, Xenopus laevis oocytes expressing NR1/NR2C; assay type: cell-based; settings: for IC50: fitted to composite concentration-effect data, read-out: 2C IC50; for Emax: maximal effect of fit, read-out: 2C Max; for activity at 100 µM: read-out: 2C percent effect at the maximum tested concentration
T3 construct: expressed in transfected cells; host or cells: Xenopus laevis oocytes
T3 sequence (Q14957 20-1233, species assumed, other chains not shown): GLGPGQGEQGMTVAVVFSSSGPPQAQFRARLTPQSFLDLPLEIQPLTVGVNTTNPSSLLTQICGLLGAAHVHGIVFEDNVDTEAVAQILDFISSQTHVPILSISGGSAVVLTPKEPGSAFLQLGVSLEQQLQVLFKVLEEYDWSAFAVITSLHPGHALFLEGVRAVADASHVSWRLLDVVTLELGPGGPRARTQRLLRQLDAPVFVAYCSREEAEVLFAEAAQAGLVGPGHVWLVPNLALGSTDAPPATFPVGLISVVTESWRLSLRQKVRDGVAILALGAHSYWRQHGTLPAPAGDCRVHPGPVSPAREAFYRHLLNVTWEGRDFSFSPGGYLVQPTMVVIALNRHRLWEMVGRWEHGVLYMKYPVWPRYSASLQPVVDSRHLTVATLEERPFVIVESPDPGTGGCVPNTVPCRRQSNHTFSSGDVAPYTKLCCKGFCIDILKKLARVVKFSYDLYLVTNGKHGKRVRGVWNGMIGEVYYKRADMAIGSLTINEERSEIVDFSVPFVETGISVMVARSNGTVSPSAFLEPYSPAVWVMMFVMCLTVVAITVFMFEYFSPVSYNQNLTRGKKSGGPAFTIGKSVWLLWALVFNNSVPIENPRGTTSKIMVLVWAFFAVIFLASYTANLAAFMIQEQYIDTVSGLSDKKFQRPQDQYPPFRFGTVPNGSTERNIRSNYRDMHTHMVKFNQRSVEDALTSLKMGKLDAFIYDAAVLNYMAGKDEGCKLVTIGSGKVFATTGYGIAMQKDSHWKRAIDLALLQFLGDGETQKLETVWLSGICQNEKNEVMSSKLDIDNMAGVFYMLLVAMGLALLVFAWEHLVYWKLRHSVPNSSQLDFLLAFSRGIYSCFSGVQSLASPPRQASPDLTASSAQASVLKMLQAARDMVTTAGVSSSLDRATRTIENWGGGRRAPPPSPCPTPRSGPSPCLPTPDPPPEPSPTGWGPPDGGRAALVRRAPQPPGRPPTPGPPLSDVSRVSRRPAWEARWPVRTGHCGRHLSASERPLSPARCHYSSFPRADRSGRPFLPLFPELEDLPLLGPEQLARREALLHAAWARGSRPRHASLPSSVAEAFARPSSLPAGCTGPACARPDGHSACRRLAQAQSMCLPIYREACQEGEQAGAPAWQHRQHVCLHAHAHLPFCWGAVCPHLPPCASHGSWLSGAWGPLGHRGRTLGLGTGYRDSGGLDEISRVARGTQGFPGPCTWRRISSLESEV
Excerpt: Values are mean+SEM (n=14-20). […] C is the closed level; broken line is the open level.
The Hill slope at both receptors for all analogues was greater than 1, consistent with a cooperative effect of binding at two sites.
as §1

[4] = target: NR1/NR2D (Homo sapiens, UniProt O15399+Q05586); test: Two electrode voltage clamp, Xenopus laevis oocytes expressing NR1/NR2D; settings: for Emax: read-out: 2D Max
[5] = read-out: 2B percent effect at the maximum tested concentration
[6] = read-out: 2D percent effect at the maximum tested concentration, at 100 μM

| Compound | activity at 100 µM [1, 5] | activity at 100 µM [2] | IC50 [3] | Emax [3] | IC50 [4] | Emax [4] | activity at 100 µM [3] | activity at 100 µM [4, 6] | IC50 [1] | activity at 100 µM ([4]; read-out: 2D percent effect at the maximum tested concentration) | activity at 20 µM ([1]; at 20 μM, read-out: 2B percent effect at the maximum tested concentration) |
| --- | --- | --- | --- | --- | --- | --- | --- | --- | --- | --- | --- |
| COc1ccc(OCC2c3cc(OC)c(OC)cc3CCN2C(=O)c2cccc(F)c2)cc1 (stereo not shown) [compound 1369] | 84% | 94% | 7 µM | 184% | 7 µM | 169% | – | – | – | – | – |
| Cc1sc(NC(=O)c2ccc(C(C)(C)C)cc2)c(C(N)=O)c1C [compound 1433] | 98% | 97% | 51 µM | 134% | 34 µM | 150% | – | – | – | – | – |
| COc1cc2c(cc1OC)C(COc1ccc(SC)cc1)N(C(=O)c1ccccc1)CC2 (stereo not shown) [1180-14] | 128% | 115% | – | – | – | – | 93% | 103% | – | – | – |
| COc1cc2c(cc1OC)C(COc1ccccc1)N(C(=O)c1ccccc1)CC2 (stereo not shown) [1180-2] | 101% | 100% | – | – | – | – | 77% | 81% | – | – | – |
| O=C(O)c1c(NC(=O)c2cccc3ccccc23)sc2c1CCC2 [compound 1441] | – | 81% | – | – | – | – | 78% | 86% | 43 µM | – | – |
| Cc1cc(C(=O)O)c(NC(=O)c2ccc(C(C)(C)C)cc2)s1 [compound 1357] | 102% | 102% | 175 µM | 388% | 120 µM | 326% | – | – | – | – | – |
| CC(C)(C)c1ccc(C(=O)Nc2scc(-c3ccc(Br)cc3)c2C(=O)O)cc1 [compound 1435] | 98% | 107% | – | – | – | – | 103% | 103% | – | – | – |
| COc1cccc(OCC2c3cc(OC)c(OC)cc3CCN2C(=O)c2cccc(Cl)c2)c1 (stereo not shown) [1180-6] | 97% | 93% | – | – | – | – | 94% | 88% | – | – | – |
| COc1ccc(OCC2c3cc(OC)c(OC)cc3CCN2C(=O)c2cccc(Cl)c2)cc1 (stereo not shown) [compound 1390] | 82% | 115% | 3 µM | 215% | 3 µM | 205% | – | – | – | – | – |
| CCN1CC(C(O)Nc2ccc(OC)cc2OC)c2cc(OC)c(OC)cc2C1=O (stereo not shown) [compound 1439] | 96% | 99% | – | – | – | – | 84% | 89% | – | – | – |
| COc1ccc(OCC2c3cc4c(cc3CCN2C(=O)c2cccc(Cl)c2)OCO4)cc1 (stereo not shown) [1180-25] | 76% | 96% | 12 µM | 188% | 7 µM | 162% | – | – | – | – | – |
| CSC1=NCCN1C(=O)c1ccc2ccccc2c1 [compound 1402] | 80% | 104% | – | – | – | – | 103% | 93% | – | – | – |
| CSC1=NCCN1C(=O)c1ccc(C(C)(C)C)cc1 [compound 1343] | – | 115% | 139 µM | 303% | 210 µM | 480% | – | – | 138 µM | – | – |
| COc1ccc(OCC2c3c(cc(OC)cc3OC)CCN2C(=O)c2ccccc2)cc1 (stereo not shown) [1180-19] | 100% | 63% | 10 µM | 160% | 9 µM | 150% | – | – | – | – | – |
| COc1cccc(OCC2c3cc(OC)c(OC)cc3CCN2C(=O)c2ccccc2)c1 (stereo not shown) [1180-7] | 92% | 94% | – | – | – | – | 75% | 75% | – | – | – |
| COc1ccc(OCC2c3cc(OC)c(OC)cc3CCN2C(=O)c2ccc(C)cc2)cc1 (stereo not shown) [compound 1371] | 70% | 73% | – | – | – | – | 89% | 100% | – | – | – |

| Compound | activity at 100 µM [1, 5] | activity at 100 µM [2] | IC50 [3] | Emax [3] | IC50 [4] | Emax [4] | activity at 100 µM [3] | activity at 100 µM [4, 6] | IC50 [1] | activity at 100 µM ([4]; read-out: 2D percent effect at the maximum tested concentration) | activity at 20 µM ([1]; at 20 μM, read-out: 2B percent effect at the maximum tested concentration) |
| --- | --- | --- | --- | --- | --- | --- | --- | --- | --- | --- | --- |
| CCOc1ccc(-c2csc(NC(=O)c3ccc(C(C)(C)C)cc3)c2C(=O)O)cc1 [compound 1423] | – | 121% | 26 µM | 323% | 25 µM | 370% | – | – | 18 µM | – | – |
| COc1cc2c(cc1OC)C(COc1ccc(SC)cc1)N(C(=O)c1cccc(Cl)c1)CC2 (stereo not shown) [1180-13] | 67% | 112% | – | – | – | – | 97% | 105% | – | – | – |
| COc1ccc(OCC2c3cc(OC)c(OC)cc3CCN2C(=O)c2ccc(Cl)cc2)cc1 (stereo not shown) [compound 1368] | 78% | 105% | 4 µM | 135% | 5 µM | 114% | – | – | – | – | – |
| CCc1ccc(C(=O)Nc2sccc2C(=O)O)cc1 [compound 1489] | 78% | 95% | – | – | – | – | 83% | 76% | – | – | – |
| Cc1ccc(-c2csc(NC(=O)c3ccc(C(C)(C)C)cc3)c2C(=O)O)cc1 [compound 1434] | – | 121% | 16 µM | 224% | 18 µM | 273% | – | – | 11 µM | – | – |
| COc1cc2c(cc1OC)C(COc1ccc(F)cc1)N(C(=O)c1cccc(F)c1)CC2 (stereo not shown) [compound 1394] | 61% | 101% | – | – | – | – | 71% | 68% | – | – | – |
| COc1ccc(OCC2c3cc(OC)c(OC)cc3CCN2C(=O)c2cccnc2)cc1 (stereo not shown) [compound 1485] | 85% | 75% | – | – | – | – | 82% | 74% | – | – | – |
| COc1cc2c(cc1OC)CN(C(=O)c1ccccc1)CC2 [1180-28] | 95% | 71% | – | – | – | – | 78% | – | – | 80% | – |
| COc1ccc(OCC2c3c(cc(OC)cc3OC)CCN2C(=O)c2cccc(Br)c2)cc1 (stereo not shown) [1180-21] | 72% | 92% | 7 µM | 265% | 7 µM | 230% | – | – | – | – | – |
| COc1ccc(OCC2c3cc(OC)c(OC)cc3CCN2C(=O)c2cccc(Br)c2)cc1 (stereo not shown) [compound 1391] | 74% | 119% | 1 µM | 195% | 2 µM | 188% | – | – | – | – | – |
| COc1cc2c(cc1OC)C(COc1ccc(OCc3ccccc3)cc1)N(C(=O)c1cccc(Cl)c1)CC2 (stereo not shown) [1180-22] | – | 95% | – | – | – | – | 79% | 58% | – | – | 50% |
| COc1ccc(OCC2c3ccc(OC)cc3CCN2C(=O)c2cccc(Br)c2)cc1 (stereo not shown) [1180-27] | 77% | 107% | 1 µM | 192% | 1 µM | 168% | – | – | – | – | – |
| COc1ccc(OCC2c3cc(OC)c(OC)cc3CCN2C(=O)c2ccno2)cc1 (stereo not shown) [1180-5] | 86% | 98% | – | – | – | – | 83% | 81% | – | – | – |
| CC1CCc2c(sc(NC(=O)c3ccc(C(C)(C)C)cc3)c2C(=O)O)C1 (stereo not shown) [compound 1481] | 119% | 113% | – | – | 21 µM | 124% | 97% | – | – | – | – |
| COc1ccc(OCC2c3cc(OC)c(OC)cc3CCN2S(=O)(=O)c2ccccc2)cc1 (stereo not shown) [compound 1487] | 71% | 89% | – | – | – | – | 69% | 79% | – | – | – |
| Cc1sc(NC(=O)c2ccc(C(C)(C)C)cc2)c(C(=O)O)c1C [compound 1418] | 115% | 99% | 33 µM | 187% | 35 µM | 195% | – | – | – | – | – |
